From patent US20160039825A1 (BIOGEN MA INC., priority 2013, published 2016) come the findings set out here.

Molecules are shown by their SMILES.

The assay has as its target T1, Human ATX protein (Homo sapiens, UniProt Q13822).
T1 construct: made in house
As to the kind of experiment: Autotaxin (ATX) assay, FRET with FS-3 substrate. Conditions: upper bound bins (no greater than 100, 250 or 500 nM); FS-3 2 μM, ATX 1.0 μg/mL. It counts as biochemical. An outline of the steps:
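In-house human ATX (1.0 μg/mL final) was preincubated with compound for 30 min at room temperature in Tris buffer pH 7.4 with NaCl, KCl, CaCl2, MgCl2 and 1 mg/mL fatty acid-free BSA. FS-3 (2 μM final) was added and the plate shaken 2 h at room temperature in the dark. Fluorescence was read at ex 485/em 538 nm.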

Consider `O=C(OCc1cc(C(F)(F)F)cc(C(F)(F)F)c1)N1CCCn2nc(N3CCCCC3=O)cc2C1` [Example 328, 3,5-bis(trifluoromethyl)benzyl 2-(2-oxopiperidin-1-yl)-7,8-dihydro-4H-pyrazolo[1,5-a][1,4]diazepine-5(6H)-carboxylate], for which the half-inhibitory concentration (IC50) (in general, the concentration at which inhibition is half-maximal) was ≤ 100 nM. As for `CN1CCN(C(=O)c2cc3n(n2)CCCN(C(=O)OCc2cc(C(F)(F)F)cc(C(F)(F)F)c2)C3)C(C)(C)C1` [Example 218], the 50% inhibitory concentration (IC50) was ≤ 100 nM. In the case of `O=C(O)c1cc2n(n1)CCCN(C(=O)CCc1cc(Cl)cc(Cl)c1)C2` [Example 83, 5-(3-(3,5-Dichlorophenyl)propanoyl)-5,6,7,8-tetrahydro-4H-pyrazolo[1,5-a][1,4]diazepine-2-carboxylic acid] it was ≤ 100 nM; in that of `O=C(O)C1CC2CCCC(C1)N2C(=O)c1cc2n(c1)CCCN(C(=O)OCc1cc(Cl)cc(Cl)c1)C2` (centres unmarked) [Example 103], ≤ 100 nM; in that of `C[C@@H]1CNC[C@H](C)N1C(=O)c1cc2n(n1)CCCN(C(=O)OCc1cc(C(F)(F)F)cc(C(F)(F)F)c1)C2` [Example 163], ≤ 100 nM. In the case of `CC1CC(c2cc3n(n2)CCCN(C(=O)OCc2cc(C(F)(F)F)cc(C(F)(F)F)c2)C3)CC(C)N1` (centres unmarked) [Example 382] it was ≤ 100 nM; in that of `O=C(O)c1nn2c(c1Br)CN(C(=O)OCc1cc(C(F)(F)F)cc(C(F)(F)F)c1)CCC2` [Example 115, 5-(((3,5-Bis(trifluoromethyl)benzyl)oxy)carbonyl)-3-bromo-5,6,7,8-tetrahydro-4H-pyrazolo[1,5-a][1,4]diazepine-2-carboxylic acid], ≤ 100 nM.

Take `CCC1CNCCN1C(=O)c1cc2n(n1)CCCN(C(=O)OCc1cc(Cl)cc(C(F)(F)F)c1)C2` (centres unmarked) [Example 205]: the half-inhibitory concentration (IC50) is ≤ 100 nM. Take `CN1CCCN(c2cc3n(n2)CCCN(C(=O)OCc2cc(C(F)(F)F)cc(C(F)(F)F)c2)C3)CC1` [Example 355]: the half-maximal inhibitory concentration (IC50) was ≤ 100 nM. On to `CC(c1cc2n(n1)CCCN(C(=O)OCc1cc(Cl)cc(Cl)c1)C2)N1CCCC1` (centres unmarked) [Example 454], for which the concentration for half-maximal inhibition (IC50) is ≤ 500 nM. With `O=C(OCc1cc(C(F)(F)F)cc(C(F)(F)F)c1)N1CCCn2nc(C(=O)N3CCN(CCO)CC3)cc2C1` [Example 298, 3,5-bis(trifluoromethyl)benzyl 2-(4-(2-hydroxyethyl)piperazine-1-carbonyl)-7,8-dihydro-4H-pyrazolo[1,5-a][1,4]diazepine-5(6H)-carboxylate], the half-maximal inhibitory concentration (IC50) is ≤ 100 nM. In the case of `CN1C2CCC1CC(c1cc3n(n1)CCCN(C(=O)OCc1cc(C(F)(F)F)cc(C(F)(F)F)c1)C3)C2` (centres unmarked) [Example 381] it was ≤ 100 nM. In the case of `CC1(C)CNCCN1C(=O)c1cc2n(n1)CCCN(C(=O)OCc1cc(Cl)cc(C(F)(F)F)c1)C2` [Example 207, 3-chloro-5-(trifluoromethyl)benzyl 2-(2,2-dimethylpiperazine-1-carbonyl)-7,8-dihydro-4H-pyrazolo[1,5-a][1,4]diazepine-5(6H)-carboxylate] it was ≤ 100 nM; in that of `O=C(OCc1cc(C(F)(F)F)cc(C(F)(F)F)c1)N1CCCn2nc(N3CCCNCC3)cc2C1` [Example 342], ≤ 100 nM.

As to `C[C@H]1CNC[C@H](C)N1C(=O)c1cc2n(n1)CCCN(C(=O)OCc1cc(Cl)cc(C(F)(F)F)c1)C2` [Example 160], the 50% inhibitory concentration (IC50) was ≤ 100 nM. For the compound `O=C(OCc1cc(Cl)cc(C(F)(F)F)c1)N1CCCn2nc(C(=O)N3CCC4NCCC43)cc2C1` (centres unmarked) [Example 166], the IC50 was ≤ 100 nM. The figure for `CC(C)(C)OC(=O)N1CCN(C(=O)c2cc3n(n2)CCN(C(=O)OCc2cc(C(F)(F)F)cc(C(F)(F)F)c2)C3)CC1` [Example 486] is ≤ 100 nM; for `CC1(C)CNCCN1C(=O)c1cc2n(n1)CCCN(C(=O)OCc1cc(C(F)(F)F)cc(C(F)(F)F)c1)C2` [Example 239] it is ≤ 100 nM; for `O=C(O)C1CC2CCCC(C1)N2C(=O)c1cc2n(n1)CCN(C(=O)CCc1cc(Cl)cc(Cl)c1)C2` (centres unmarked) [Example 92, 9-(5-(3-(3,5-Dichlorophenyl)propanoyl)-4,5,6,7-tetrahydropyrazolo[1,5-a]pyrazine-2-carbonyl)-9-azabicyclo[3.3.1]nonane-3-carboxylic acid] it is ≤ 100 nM. The figure for `O=C(OCc1cc(C(F)(F)F)cc(C(F)(F)F)c1)N1CCn2nc(C(=O)N3C4CCC3CNC4)cc2C1` [Example 426] is ≤ 100 nM; for `O=C(OCc1cc(Cl)cc(Cl)c1)N1CCCn2nc(C(=O)N3CCN4CCC[C@@H]4C3)cc2C1` [Example 228] it is ≤ 100 nM; for `CC(CO)NC(=O)c1cc2n(n1)CCN(C(=O)OCc1cc(C(F)(F)F)cc(C(F)(F)F)c1)C2` (centres unmarked) [Example 472] it is ≤ 100 nM.

On to `CC(NC1=NCCN1)c1cc2n(n1)CCCN(C(=O)OCc1cc(Cl)cc(C(F)(F)F)c1)C2` (centres unmarked) [Example 157, 3-chloro-5-(trifluoromethyl)benzyl 2-(1-((4,5-dihydro-1H-imidazol-2-yl)amino)ethyl)-7,8-dihydro-4H-pyrazolo[1,5-a][1,4]diazepine-5(6H)-carboxylate], for which the IC50 was ≤ 250 nM. The figure for `O=C(NC1CCCCC1)c1cc2n(n1)CCN(C(=O)OCc1cc(C(F)(F)F)cc(C(F)(F)F)c1)C2` [Example 492] is ≤ 100 nM; for `O=C(OCc1cc(C(F)(F)F)cc(C(F)(F)F)c1)N1CCCn2nc(NC3CCNCC3)cc2C1` [Example 313, 3,5-bis(trifluoromethyl)benzyl 2-(piperidin-4-ylamino)-7,8-dihydro-4H-pyrazolo[1,5-a][1,4]diazepine-5(6H)-carboxylate] it is ≤ 250 nM; for `O=C(OCc1cc(Cl)cc(Cl)c1)N1CCCn2nc(-c3nnn[nH]3)cc2C1` [Example 123, 3,5-Dichlorobenzyl 2-(1H-tetrazol-5-yl)-7,8-dihydro-4H-pyrazolo[1,5-a][1,4]diazepine-5(6H)-carboxylate] it is ≤ 250 nM. The figure for `O=C(OCc1cc(Cl)cc(C(F)(F)F)c1)N1CCCn2nc(CNC3=NCCN3)cc2C1` [Example 154, 3-chloro-5-(trifluoromethyl)benzyl 2-(((4,5-dihydro-1H-imidazol-2-yl)amino)methyl)-7,8-dihydro-4H-pyrazolo[1,5-a][1,4]diazepine-5(6H)-carboxylate] is ≤ 250 nM. For the compound `CCOC(=O)c1nn2c(c1Br)CN(C(=O)OCc1cc(C(F)(F)F)cc(C(F)(F)F)c1)CCC2` [Example 114, 5-(3,5-Bis(trifluoromethyl)benzyl) 2-ethyl 3-bromo-7,8-dihydro-4H-pyrazolo[1,5-a][1,4]diazepine-2,5(6H)-dicarboxylate], the IC50 was ≤ 100 nM. With `CN1CCN(c2cc3n(n2)CCCN(C(=O)OCc2cc(C(F)(F)F)cc(C(F)(F)F)c2)C3)CC1` [Example 338, 3,5-bis(trifluoromethyl)benzyl 2-(4-methylpiperazin-1-yl)-7,8-dihydro-4H-pyrazolo[1,5-a][1,4]diazepine-5(6H)-carboxylate], the IC50 was ≤ 100 nM. In the case of `O=C(O)C1CC2CCCC(C1)N2Cc1cc2n(n1)CCCN(C(=O)OCc1cc(C(F)(F)F)cc(C(F)(F)F)c1)C2` (centres unmarked) [Example 297] it was ≤ 250 nM; in that of `CCCNC(=O)c1cc2n(n1)CCN(C(=O)OCc1cc(C(F)(F)F)cc(C(F)(F)F)c1)C2` [Example 481], ≤ 100 nM; in that of `O=C(NC1CCOCC1)c1cc2n(n1)CCCN(C(=O)OCc1cc(C(F)(F)F)cc(C(F)(F)F)c1)C2` [Example 506], ≤ 100 nM.
